{"source": "paper PMC7044433", "about": "“Combining DNMT and HDAC6 inhibitors increases anti-tumor immune signaling and decreases tumor burden in ovarian cancer” (Scientific Reports, 2020)", "key": {"[1]": {"tested_on": "IGROV-1 CR", "set-up": "method as in PMID 29662190", "settings": "read-out: cisplatin IC50; cited from earlier work"}, "[2]": {"tested_on": "SKOV3 CR", "set-up": "method as in PMID 29662190", "settings": "read-out: cisplatin IC50; cited from earlier work"}, "[3]": {"tested_on": "ARID1A mutated ovarian clear cell carcinoma", "settings": "mice with ARID1A mutated ovarian clear cell carcinoma; cited from earlier work"}, "[4]": {"tested_on": "HDAC activity", "assay": "HDAC-Glo assay, percent inhibition of HDAC activity in ovarian cancer cell lines", "type": "cell-based, human", "description": "HDACi enzymatic function was measured using HDACglo class I/IIa Assay (Promega, G6420). Cells were seeded in a 96-well dish and treated with 500 nM 5-azacytidine and varying levels of HDACi to determine appropriate HDACi dosage. Assay measurements were collected using SpectraMax i3x multi-mode microplate reader (Molecular Devices, USA) at the recommended wavelength. […], Givinostat, and Panobinostat (SelleckChem) were used to compare enzymatic inhibition levels of Nexturastat in each cell line. Results were analyzed according to manufacturer recommendations."}, "[5]": {"tested_on": "ovarian cancer cell lines", "assay": "CellTox Green cytotoxicity assay", "type": "cell-based, human", "settings": "NextA dose chosen for each cell line, 5–10 uM", "description": "Drug toxicity levels were measured using the CellTox Assay (Promega, G8741). Cells were seeded into a 96-well dish and treated with 500 nm 5-azacytidine and varying levels of HDACi to determine suitable dosage. Cells were treated with fluorescent dye and incubated for 4 days measuring cell death according to the manufacturer’s protocol. For longer treatments, cells were seeded in a 96-well place and treated with 500 nm 5-azacytidine for 4 days and then varying levels of HDACi. Cells were treated with a fluorescent dye on the fourth day and incubated to measure cell death. Assay measurements were collected using SpectraMax i3x multi-mode microplate reader (Molecular Devices, USA) at the recommended wavelength. For our analysis, TritonX (Sigma, 9002-93-1) was used as the positive control compound to simulate cell death on all […] read days. Results were analyzed according to manufacture recommendations."}, "[6]": {"tested_on": "A2780", "assay": "qRT-PCR of interferon stimulated genes and cytokines", "type": "cell-based, human", "settings": "A2780, Day 7, 500 nM Aza then NextA, fold change relative to Mock", "description": "(§1) Cells were cultured in T75 dishes to form a monolayer at 80% confluency. Combination cells were treated with 500 nM 5-azacytidine or PBS for 3 days. Cells were passaged on the fourth day and split into 2 flasks to be treated with Nexturastat or vehicle at the desired dose based on the cell line for the following 3 days. On the last day of HDACi treatment, one flask from each treatment group was stimulated with 250 ng/mL IFNγ (Peprotech, 300-02) for 4 hours. For isogeneic ID8 murine cell lines, cell were stimulated with 250 ng/mL […] (Peprotech, 315-05) for 4 hours. On the seventh day cell pellets were collected for qPCR analysis.\n(§2) Total RNA was extracted using the TRIzol method (Life Technologies). RNA concentration was determined using the Thermo Scientific NanoDrop One machine and software (Thermo Scientific, 840274100PR2). One microgram total RNA was DNAse I (Thermo Scientific) treated and used to generate cDNA with the Applied Biosystems High-Capacity cDNA Reverse Transcriptase Kit (Applied Biosystems, 4368814). All RT-qPCRs were run on the Applied Biosystems Quantstudio3 Real-Time PCR System, 96-well plate reader (Applied Biosystems, A28137) and using TaqMan assay Gene Expression Array (Thermo Fisher Scientific, 4331182) in human for OASL, IFI44L, IFNb1, CXCL10, CCL2, CCL5, IFI27, CD247, DNMT1, DNMT3a, DNMT3b and in mouse (Thermo Fisher Scientific, 4331182) for OASL, IFI44L, IFNb1, CXCL10, CCL2, CCL5, IFI27, and CD247. TBP was used as a housekeeping gene for both human and murine cell lines. The ΔΔCt method was used to calculate relative expression levels. Reverse transcriptase negative cDNA synthesis reaction was performed on at least one sample per 96-well plate along with a water control to ensure accurate results."}, "[7]": {"tested_on": "Hey", "assay": "qRT-PCR of interferon stimulated genes and cytokines", "type": "cell-based, human", "settings": "Day 7, 500 nM Aza then NextA, fold change relative to Mock", "description": "as §1, §2"}, "[8]": {"tested_on": "Kuramochi", "assay": "qRT-PCR of interferon stimulated genes and cytokines", "type": "cell-based, human", "settings": "Day 7, seven genes", "description": "as §1, §2"}, "[9]": {"tested_on": "SKOV3 CR", "assay": "qRT-PCR of interferon stimulated genes and cytokines", "type": "cell-based, human", "settings": "Day 7", "description": "as §1, §2"}, "[10]": {"tested_on": "MOSE ID8 Trp53−/−", "assay": "qRT-PCR of interferon stimulated genes and cytokines", "type": "cell-based, mouse", "settings": "Day 7, 500 nM Aza then NextA, fold change relative to Mock", "description": "as §1\nTotal RNA was extracted using the TRIzol method (Life Technologies). RNA concentration was determined using the Thermo Scientific NanoDrop One machine and software (Thermo Scientific, 840274100PR2). […] All RT-qPCRs were run on the Applied Biosystems Quantstudio3 Real-Time PCR System, 96-well plate reader (Applied Biosystems, A28137) and using TaqMan assay Gene Expression Array (Thermo Fisher Scientific, 4331182) in human for OASL, IFI44L, IFNb1, CXCL10, CCL2, CCL5, IFI27, CD247, DNMT1, DNMT3a, DNMT3b and in mouse (Thermo Fisher Scientific, 4331182) for OASL, IFI44L, IFNb1, CXCL10, CCL2, CCL5, IFI27, and CD247. […]"}, "[11]": {"tested_on": "MHC class I, Hey human ovarian cancer cell line", "assay": "MHC class I cell surface expression by flow cytometry", "type": "cell-based", "settings": "Day 7, flow cytometry MFI", "description": "(§3) Cells were cultured in T75 dishes (Greiner, 658170) to form a monolayer at 80% confluency. Combination cells were treated with 500 nM 5-azacytidine (Sigma-Aldrich) once a day for 3 days or PBS once a day for 3 days. Cells were passaged on the fourth day and split into 2 flasks to be treated with Nexturastat (StarWise, LLC) or DMSO for vehicle control at the desired dose based on the cell line for the following 3 days. On the first day of Nexturastat treatment, one flask from each treatment group was stimulated with 250 ng/mL IFNγ (Peprotech, 300-02). For isogeneic ID8 murine cell lines, on the first day of HDACi treatment cell were treated with 250 ng/mL IFNγ (Peprotech, 315-05). On the seventh day, cell pellets were collected for Western Blot or flow cytometry analysis. For cycloheximide experiments, cells were treated on the seventh day of the experiment for 0, 4 or 8 hours with 10 μM cycloheximide (Sigma, C4859).\n(§4) Human ovarian cancer cells from day 7 of the protein protocol were stained for CD274 (eBioscience,12-5983-42) and MHC-I (eBioscience, 12-9983-42).\n(§5) All cells were fixed after staining using Foxp3/Transcription Factor Staining Buffer Set (eBioscience, 00-5523-00) and run on a 3-laser, 12-color BD Celesta analyzer."}, "[12]": {"tested_on": "MHC class I, ID8 Trp53−/− mouse ovarian cancer cell line", "assay": "MHC class I cell surface expression by flow cytometry", "type": "cell-based", "settings": "Day 7, flow cytometry MFI", "description": "as §3\nMurine ovarian cancer cell lines from day 7 of the protein protocol were stained for PD-L1/CD274 (BD Bioscience, 558091), PD-L2/CD273 (Biolegend, 107214), MHC-I (Invitrogen, 17-5958-82), and MHC-II (Invitrogen 56-5321-82).\nas §5"}, "[13]": {"tested_on": "MHC I, IGROV-1 CR and SKOV3 CR", "assay": "MHC I surface expression in cisplatin-resistant cell lines", "type": "cell-based, human", "settings": "flow cytometry", "description": "as §3, §4, §5"}, "[14]": {"tested_on": "PD-L1", "assay": "PD-L1 whole-cell protein immunoblot", "type": "cell-based, human", "settings": "IGROV-1 CR and SKOV3 CR", "description": "as §3\n(§6) Isolated cell pellets were lysed in RIPA buffer (Pierce, 89900) with 1X protease and phosphatase inhibitor (Pierce, A32961). […] Protein concentration was determined using a Pierce BCA Protein Assay Kit (Thermo Fisher Scientific, 23225) according to the manufacturer’s protocol. […] Bands were detected using Azure Biosystems (Dublin, California, USA) Imaging System c600. […]"}, "[15]": {"tested_on": "tumor microenvironment immune cells", "assay": "Immunophenotyping of ascites in ID8 Trp53−/− mouse model", "type": "in vivo", "settings": "first experiment, Week 7", "description": "Ascites and murine spleens were collected from 5 to 10 mice per group and incubated in ACK buffer (Thermo Fisher Scientific) to lyse red blood cells for 10 min and then washed. Ascites from each mouse were individually prepared for flow cytometry. The single cells collected were cultured for 4 hours in RPMI with 10% FBS and in the presence of 2 ul/ml Cell Stimulation Cocktail plus protein transport inhibitors (eBioscience, 00497503). Cells were then washed and stained for the T cell panel including: Live/Dead (Thermo Fisher Scientific, L34965), CD45 (Biolegend, 103132), CD3 (Biolegend, 152316), CD4 (Biolegend, 100453), CD8 (Biolegend, 100766), NK1.1 (Biolegend, 108753) CD 279 (Biolegend, 135205). After incubation, the cells were permeabilized (FoxP3 staining buffers; BD Bioscience, 563486). Intracellular staining was performed for FoxP3 (Biolegend, 505806) and IFN-γ (BD Bioscience, 563486).\nas §5"}, "[16]": {"tested_on": "ID8 Trp53−/− ovarian cancer", "assay": "ID8 Trp53−/− mouse model of ovarian cancer, survival and tumor burden", "settings": "first experiment; for survival: i.p. Aza 0.5 mg/kg, NextA 25 mg/kg, 5 days a week, combination on alternating weeks, vs Mock", "protocol": "For in vivo tumor studies, all mice were given intraperitoneal injections with 5.0 ×10^6 p53−/− isogeneic murine ovarian cancer cells suspended in 500 uL 1x phosphate buffered saline (PBS) (Corning 21-040-CV). Treatment began 1 week after tumor inoculation and ended when the tumor burden was deemed excessive for the animal. Mice were injected with 5-azacytidine and Nexturastat 5 days a week in alternating treatment (see treatment schemas in Figs. 5 and 6). All mice were given intraperitoneal injections of epigenetic drugs or their appropriate controls. Mice in the 5-azacytidine group were given 0.5 mg/kg of 5-azacytidine dissolved in 100 ul of PBS solution daily. Mice in the NexturastatA group were given 25 mg/kg of Nexturastat A dissolved in 100 ul PEG vehicle solution(70% Polyethylene glycol, 10% Tween80, 20% absolute ethanol) daily. Mice in the NextA+Aza group were given 5-azacytidine and NexturastatA on an alternating weekly basis. Mice in the control group were given a drug vehicle comprised of 70% Polyethylene glycol (Sigma 764752), 10% Tween 80 (Sigma P5188), and 20% 200 proof absolute ethanol as per the manufacturer guidelines as a vehicle control for Nexturastat or PBS as a vehicle control for 5-azacytidine.\nTumor burden was assessed via measurement of body weight, amount of ascites drained from the mice at the point where they had gained 20 to 30% of their body weight, or abdominal circumference measurements."}, "[17]": {"tested_on": "TykNu", "assay": "qRT-PCR of interferon stimulated genes and cytokines", "type": "cell-based, human", "settings": "Day 7, seven genes", "description": "as §1, §2"}, "[18]": {"tested_on": "DNMT1 protein", "assay": "DNMT1 immunoblot in ovarian cancer cell lines", "type": "cell-based, human", "settings": "Day 7", "description": "as §3, §6"}, "[19]": {"settings": "low doses (250–500 nM), positive controls"}}}
{"smiles": "N.N.[Cl][Pt][Cl]", "note": "[cisplatin]", "values": [{"measurement": "IC50", "setting": "[1]", "result": 1.5, "unit": "µM"}, {"measurement": "IC50", "setting": "[2]", "result": 10.4, "unit": "µM"}]}
{"smiles": "O=C(CCCCCCNC(=O)c1cnc(N(c2ccccc2)c2ccccc2)nc1)NO", "note": "[ACY1215]", "values": [{"measurement": "survival", "setting": "[3]", "result": "improved survival"}]}
{"smiles": "CCCCN(Cc1ccc(C(=O)NO)cc1)C(=O)Nc1ccccc1", "note": "[NextA, Nexturastat A]", "values": [{"measurement": "inhibition of HDAC activity", "setting": "[4]; 5 and 10 uM", "result": "60–80%"}, {"measurement": "cell death", "setting": "[5]", "result": "no more than 20%"}, {"measurement": "expression of cytokines and interferon genes", "setting": "[6]", "result": "significantly increased"}, {"measurement": "expression of cytokines and interferon genes", "setting": "[7]", "result": "significantly increased"}, {"measurement": "expression of cytokines and interferon genes", "setting": "[8]", "result": "some upregulation"}, {"measurement": "expression of cytokines and interferon genes", "setting": "[9]", "result": "upregulated CCL2 and OASL genes"}, {"measurement": "expression of cytokines and interferon genes", "setting": "[10]", "result": "significantly increased"}, {"measurement": "MHC class I cell surface expression", "setting": "[11]", "result": "upregulated"}, {"measurement": "MHC class I cell surface expression", "setting": "[12]", "result": "upregulated"}, {"measurement": "MHC I expression", "setting": "[13]", "result": "increase in MHC I expression"}, {"measurement": "total PD-L1 protein", "setting": "[14]", "result": "decrease of total PD-L1 protein"}, {"measurement": "activated NK cells in ascites", "setting": "[15]", "result": "favoring the presence of activated NK cells"}, {"measurement": "survival", "setting": "[16]", "result": "did not"}]}
{"smiles": "CC(/C=C/C(=O)NO)=C\\[C@@H](C)C(=O)c1ccc(N(C)C)cc1", "note": "[TSA]", "values": [{"measurement": "inhibition of HDAC activity", "setting": "[4]; [19]", "result": 100, "unit": "%"}]}
{"smiles": "CCN(CC)Cc1ccc2cc(COC(=O)Nc3ccc(C(=O)NO)cc3)ccc2c1", "note": "[Givinostat]", "values": [{"measurement": "inhibition of HDAC activity", "setting": "[4]; [19]", "result": 100, "unit": "%"}]}
{"smiles": "Cc1[nH]c2ccccc2c1CCNCc1ccc(/C=C/C(=O)NO)cc1", "note": "[LBH]", "values": [{"measurement": "inhibition of HDAC activity", "setting": "[4]; [19]", "result": 100, "unit": "%"}]}
{"smiles": "Nc1ncn([C@@H]2O[C@H](CO)[C@@H](O)[C@H]2O)c(=O)n1", "note": "[Aza, 5-azacytidine]", "values": [{"measurement": "expression of cytokines and interferon genes", "setting": "[6]", "result": "significantly increased"}, {"measurement": "expression of cytokines and interferon genes", "setting": "[7]", "result": "significantly increased"}, {"measurement": "expression of cytokines and interferon genes", "setting": "[8]", "result": "some upregulation"}, {"measurement": "expression of cytokines and interferon genes", "setting": "[9]", "result": "upregulated CCL2 and OASL genes"}, {"measurement": "expression of cytokines and interferon genes", "setting": "[17]", "result": "significant increases"}, {"measurement": "expression of cytokines and interferon genes", "setting": "[10]", "result": "significantly increased"}, {"measurement": "DNMT1 protein expression", "setting": "[18]", "result": "degrades the DNMT1 protein"}, {"measurement": "M1 macrophages in ascites", "setting": "[15]", "result": "increase in M1 macrophages"}, {"measurement": "ascites volume (tumor burden)", "setting": "[16]; Week 7", "result": "decreased ascites volume"}, {"measurement": "survival", "setting": "[16]", "result": "significantly increased survival"}]}
